Experiments:
[1] = target: T1, 5-hydroxytryptamine receptor 1A (Homo sapiens, UniProt P08908)
T1 sequence (P08908 whole entry): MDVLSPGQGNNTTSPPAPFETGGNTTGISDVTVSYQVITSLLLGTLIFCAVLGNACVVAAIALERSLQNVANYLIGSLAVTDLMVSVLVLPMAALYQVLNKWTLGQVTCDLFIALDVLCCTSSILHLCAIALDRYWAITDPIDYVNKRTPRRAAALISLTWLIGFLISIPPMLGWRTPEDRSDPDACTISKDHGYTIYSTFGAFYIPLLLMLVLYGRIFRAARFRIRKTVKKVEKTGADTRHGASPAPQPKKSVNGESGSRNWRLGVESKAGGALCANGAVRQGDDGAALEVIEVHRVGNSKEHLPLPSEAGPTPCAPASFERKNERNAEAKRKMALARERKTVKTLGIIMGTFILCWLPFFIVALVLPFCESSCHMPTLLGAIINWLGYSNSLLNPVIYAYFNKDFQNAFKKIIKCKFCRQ

[2] = target: Beta-1 adrenergic receptor (Homo sapiens, UniProt P08588); type: functional
[3] = target: Gamma-aminobutyric acid receptor subunit alpha-1/alpha-2/beta-2/gamma-2 (Homo sapiens, UniProt P14867+P18507+P47869+P47870); type: functional, cell-based
[4] = target: T2, Muscarinic acetylcholine receptor M1 (Homo sapiens, UniProt P11229)
T2 sequence (P11229 whole entry): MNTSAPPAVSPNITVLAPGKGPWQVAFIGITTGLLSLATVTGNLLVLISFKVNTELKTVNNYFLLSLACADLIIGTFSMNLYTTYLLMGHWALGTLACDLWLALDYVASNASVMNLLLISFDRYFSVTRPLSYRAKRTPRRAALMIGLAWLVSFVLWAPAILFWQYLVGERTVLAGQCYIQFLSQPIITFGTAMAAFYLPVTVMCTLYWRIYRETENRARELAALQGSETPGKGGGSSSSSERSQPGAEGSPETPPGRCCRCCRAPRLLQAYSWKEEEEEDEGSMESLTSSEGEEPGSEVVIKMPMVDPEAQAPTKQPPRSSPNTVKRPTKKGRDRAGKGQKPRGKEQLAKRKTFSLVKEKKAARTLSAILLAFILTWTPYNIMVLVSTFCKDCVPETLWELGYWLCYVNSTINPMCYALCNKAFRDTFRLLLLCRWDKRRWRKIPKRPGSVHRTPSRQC

[5] = target: Beta-3 adrenergic receptor (Homo sapiens, UniProt P13945)
[6] = target: T3, Neuropeptide Y receptor type 2 (Homo sapiens, UniProt P49146)
T3 sequence (P49146 whole entry): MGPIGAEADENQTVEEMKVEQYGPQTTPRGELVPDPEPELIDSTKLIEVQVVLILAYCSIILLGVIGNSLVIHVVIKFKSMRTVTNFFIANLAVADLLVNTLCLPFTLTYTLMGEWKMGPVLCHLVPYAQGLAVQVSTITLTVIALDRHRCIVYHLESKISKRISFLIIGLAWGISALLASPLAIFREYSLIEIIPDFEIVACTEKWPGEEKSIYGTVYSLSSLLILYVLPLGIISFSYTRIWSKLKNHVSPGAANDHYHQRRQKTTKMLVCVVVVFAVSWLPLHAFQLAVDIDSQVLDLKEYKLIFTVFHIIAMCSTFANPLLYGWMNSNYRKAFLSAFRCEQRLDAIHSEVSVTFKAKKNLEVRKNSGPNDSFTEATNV

[7] = target: Voltage-dependent N-type calcium channel subunit alpha-1B (Rattus norvegicus, UniProt Q02294); type: functional
[8] = target: T4, Corticotropin-releasing factor receptor 1 (Homo sapiens, UniProt P34998)
T4 sequence (P34998 whole entry): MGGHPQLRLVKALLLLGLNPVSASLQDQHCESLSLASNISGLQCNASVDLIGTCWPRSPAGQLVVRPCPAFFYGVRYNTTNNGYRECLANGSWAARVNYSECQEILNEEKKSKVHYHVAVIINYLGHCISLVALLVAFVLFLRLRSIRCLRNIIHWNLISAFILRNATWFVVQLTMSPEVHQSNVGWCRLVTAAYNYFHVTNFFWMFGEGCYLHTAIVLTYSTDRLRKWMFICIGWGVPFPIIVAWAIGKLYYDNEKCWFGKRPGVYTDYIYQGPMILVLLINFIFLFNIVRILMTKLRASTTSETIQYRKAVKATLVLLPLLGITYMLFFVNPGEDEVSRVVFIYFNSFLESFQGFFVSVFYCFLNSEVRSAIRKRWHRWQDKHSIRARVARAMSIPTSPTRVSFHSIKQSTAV

[9] = target: Neurotensin receptor type 1 (Homo sapiens, UniProt P30989)
[10] = target: T5, Estrogen receptor (Homo sapiens, UniProt P03372)
T5 sequence (P03372 whole entry): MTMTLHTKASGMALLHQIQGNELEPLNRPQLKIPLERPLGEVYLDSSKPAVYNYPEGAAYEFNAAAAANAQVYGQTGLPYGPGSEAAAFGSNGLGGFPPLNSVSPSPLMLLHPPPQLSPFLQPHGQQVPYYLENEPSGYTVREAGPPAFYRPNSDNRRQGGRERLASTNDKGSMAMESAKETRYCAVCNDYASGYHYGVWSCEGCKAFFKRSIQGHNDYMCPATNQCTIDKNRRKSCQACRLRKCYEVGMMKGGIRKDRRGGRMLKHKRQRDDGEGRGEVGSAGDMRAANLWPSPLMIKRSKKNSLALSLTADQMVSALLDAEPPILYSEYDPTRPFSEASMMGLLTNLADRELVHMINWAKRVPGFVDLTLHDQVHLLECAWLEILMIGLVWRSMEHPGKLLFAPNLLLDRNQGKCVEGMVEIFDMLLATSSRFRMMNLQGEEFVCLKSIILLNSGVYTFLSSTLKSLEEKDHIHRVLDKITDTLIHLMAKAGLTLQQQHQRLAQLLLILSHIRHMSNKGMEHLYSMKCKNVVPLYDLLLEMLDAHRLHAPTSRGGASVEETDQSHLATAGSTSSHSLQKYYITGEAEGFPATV
Further: assay procedure not described here.

Sequence of Gamma-aminobutyric acid receptor subunit alpha-1/alpha-2/beta-2/gamma-2 (P14867 whole entry): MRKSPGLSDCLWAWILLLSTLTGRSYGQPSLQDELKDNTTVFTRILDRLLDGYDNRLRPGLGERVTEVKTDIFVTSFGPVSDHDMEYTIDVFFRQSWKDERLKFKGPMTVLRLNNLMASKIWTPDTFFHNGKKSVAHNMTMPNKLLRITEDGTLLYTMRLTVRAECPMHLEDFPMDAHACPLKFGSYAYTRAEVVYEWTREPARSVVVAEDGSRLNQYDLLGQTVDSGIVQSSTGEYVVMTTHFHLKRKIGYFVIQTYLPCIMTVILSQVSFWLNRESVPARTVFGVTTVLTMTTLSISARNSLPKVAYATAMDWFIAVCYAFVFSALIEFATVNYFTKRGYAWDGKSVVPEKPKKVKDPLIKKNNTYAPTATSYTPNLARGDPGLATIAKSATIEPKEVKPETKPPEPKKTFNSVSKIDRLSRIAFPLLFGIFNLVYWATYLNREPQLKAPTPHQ
Sequence of Gamma-aminobutyric acid receptor subunit alpha-1/alpha-2/beta-2/gamma-2 (P47870 whole entry): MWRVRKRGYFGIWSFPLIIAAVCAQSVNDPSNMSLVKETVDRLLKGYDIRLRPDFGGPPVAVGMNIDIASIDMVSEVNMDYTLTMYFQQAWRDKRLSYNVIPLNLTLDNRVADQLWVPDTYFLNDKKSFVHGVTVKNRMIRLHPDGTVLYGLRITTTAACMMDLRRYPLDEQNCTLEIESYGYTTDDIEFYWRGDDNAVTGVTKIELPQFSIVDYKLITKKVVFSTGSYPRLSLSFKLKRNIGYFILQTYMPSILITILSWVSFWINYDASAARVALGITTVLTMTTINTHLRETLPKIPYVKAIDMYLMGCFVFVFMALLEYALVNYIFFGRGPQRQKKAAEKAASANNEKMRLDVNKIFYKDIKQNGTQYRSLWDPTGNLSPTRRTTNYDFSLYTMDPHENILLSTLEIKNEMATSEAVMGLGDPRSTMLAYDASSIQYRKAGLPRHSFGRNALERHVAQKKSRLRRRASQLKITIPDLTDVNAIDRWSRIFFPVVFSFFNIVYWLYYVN
Sequence of Gamma-aminobutyric acid receptor subunit alpha-1/alpha-2/beta-2/gamma-2 (P18507 whole entry): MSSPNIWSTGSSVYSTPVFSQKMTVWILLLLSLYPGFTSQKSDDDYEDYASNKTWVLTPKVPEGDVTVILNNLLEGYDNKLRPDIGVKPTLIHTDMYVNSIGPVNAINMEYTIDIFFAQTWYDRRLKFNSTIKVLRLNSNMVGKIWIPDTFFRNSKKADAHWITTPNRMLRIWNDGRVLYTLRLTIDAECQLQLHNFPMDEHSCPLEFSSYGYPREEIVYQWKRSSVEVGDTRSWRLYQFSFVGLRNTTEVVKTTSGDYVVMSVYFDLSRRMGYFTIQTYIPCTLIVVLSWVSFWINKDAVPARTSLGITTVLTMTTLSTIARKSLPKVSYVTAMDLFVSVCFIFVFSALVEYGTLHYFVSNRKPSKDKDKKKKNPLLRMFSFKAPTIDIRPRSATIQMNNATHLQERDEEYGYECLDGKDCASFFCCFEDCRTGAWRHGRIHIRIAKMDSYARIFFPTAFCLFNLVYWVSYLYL
Sequence of Gamma-aminobutyric acid receptor subunit alpha-1/alpha-2/beta-2/gamma-2 (P47869 whole entry): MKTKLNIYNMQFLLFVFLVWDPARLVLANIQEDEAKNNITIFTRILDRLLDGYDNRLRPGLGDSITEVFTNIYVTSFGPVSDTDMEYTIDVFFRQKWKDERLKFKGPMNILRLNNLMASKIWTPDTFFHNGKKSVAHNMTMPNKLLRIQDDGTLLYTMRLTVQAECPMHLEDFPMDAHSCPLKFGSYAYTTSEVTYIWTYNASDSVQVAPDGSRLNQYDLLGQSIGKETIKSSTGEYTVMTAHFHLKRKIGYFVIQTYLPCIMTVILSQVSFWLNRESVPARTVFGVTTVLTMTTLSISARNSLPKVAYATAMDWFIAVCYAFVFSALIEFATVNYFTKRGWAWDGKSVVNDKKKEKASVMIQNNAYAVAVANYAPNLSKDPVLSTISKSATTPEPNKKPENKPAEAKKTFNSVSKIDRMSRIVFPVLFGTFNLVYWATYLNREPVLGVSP
Sequence of Beta-3 adrenergic receptor (P13945 whole entry): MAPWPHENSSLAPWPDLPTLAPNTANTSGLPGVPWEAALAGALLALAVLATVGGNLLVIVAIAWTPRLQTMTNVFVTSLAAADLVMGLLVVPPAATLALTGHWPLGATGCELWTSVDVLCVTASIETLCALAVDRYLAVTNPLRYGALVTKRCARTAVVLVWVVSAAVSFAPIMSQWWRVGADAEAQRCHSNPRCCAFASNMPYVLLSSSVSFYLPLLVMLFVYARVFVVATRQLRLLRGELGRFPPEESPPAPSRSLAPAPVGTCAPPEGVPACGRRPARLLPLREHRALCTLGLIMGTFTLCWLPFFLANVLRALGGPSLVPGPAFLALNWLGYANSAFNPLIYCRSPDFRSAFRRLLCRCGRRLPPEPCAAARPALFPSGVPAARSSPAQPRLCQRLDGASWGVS
Sequence of Voltage-dependent N-type calcium channel subunit alpha-1B (Q02294 whole entry): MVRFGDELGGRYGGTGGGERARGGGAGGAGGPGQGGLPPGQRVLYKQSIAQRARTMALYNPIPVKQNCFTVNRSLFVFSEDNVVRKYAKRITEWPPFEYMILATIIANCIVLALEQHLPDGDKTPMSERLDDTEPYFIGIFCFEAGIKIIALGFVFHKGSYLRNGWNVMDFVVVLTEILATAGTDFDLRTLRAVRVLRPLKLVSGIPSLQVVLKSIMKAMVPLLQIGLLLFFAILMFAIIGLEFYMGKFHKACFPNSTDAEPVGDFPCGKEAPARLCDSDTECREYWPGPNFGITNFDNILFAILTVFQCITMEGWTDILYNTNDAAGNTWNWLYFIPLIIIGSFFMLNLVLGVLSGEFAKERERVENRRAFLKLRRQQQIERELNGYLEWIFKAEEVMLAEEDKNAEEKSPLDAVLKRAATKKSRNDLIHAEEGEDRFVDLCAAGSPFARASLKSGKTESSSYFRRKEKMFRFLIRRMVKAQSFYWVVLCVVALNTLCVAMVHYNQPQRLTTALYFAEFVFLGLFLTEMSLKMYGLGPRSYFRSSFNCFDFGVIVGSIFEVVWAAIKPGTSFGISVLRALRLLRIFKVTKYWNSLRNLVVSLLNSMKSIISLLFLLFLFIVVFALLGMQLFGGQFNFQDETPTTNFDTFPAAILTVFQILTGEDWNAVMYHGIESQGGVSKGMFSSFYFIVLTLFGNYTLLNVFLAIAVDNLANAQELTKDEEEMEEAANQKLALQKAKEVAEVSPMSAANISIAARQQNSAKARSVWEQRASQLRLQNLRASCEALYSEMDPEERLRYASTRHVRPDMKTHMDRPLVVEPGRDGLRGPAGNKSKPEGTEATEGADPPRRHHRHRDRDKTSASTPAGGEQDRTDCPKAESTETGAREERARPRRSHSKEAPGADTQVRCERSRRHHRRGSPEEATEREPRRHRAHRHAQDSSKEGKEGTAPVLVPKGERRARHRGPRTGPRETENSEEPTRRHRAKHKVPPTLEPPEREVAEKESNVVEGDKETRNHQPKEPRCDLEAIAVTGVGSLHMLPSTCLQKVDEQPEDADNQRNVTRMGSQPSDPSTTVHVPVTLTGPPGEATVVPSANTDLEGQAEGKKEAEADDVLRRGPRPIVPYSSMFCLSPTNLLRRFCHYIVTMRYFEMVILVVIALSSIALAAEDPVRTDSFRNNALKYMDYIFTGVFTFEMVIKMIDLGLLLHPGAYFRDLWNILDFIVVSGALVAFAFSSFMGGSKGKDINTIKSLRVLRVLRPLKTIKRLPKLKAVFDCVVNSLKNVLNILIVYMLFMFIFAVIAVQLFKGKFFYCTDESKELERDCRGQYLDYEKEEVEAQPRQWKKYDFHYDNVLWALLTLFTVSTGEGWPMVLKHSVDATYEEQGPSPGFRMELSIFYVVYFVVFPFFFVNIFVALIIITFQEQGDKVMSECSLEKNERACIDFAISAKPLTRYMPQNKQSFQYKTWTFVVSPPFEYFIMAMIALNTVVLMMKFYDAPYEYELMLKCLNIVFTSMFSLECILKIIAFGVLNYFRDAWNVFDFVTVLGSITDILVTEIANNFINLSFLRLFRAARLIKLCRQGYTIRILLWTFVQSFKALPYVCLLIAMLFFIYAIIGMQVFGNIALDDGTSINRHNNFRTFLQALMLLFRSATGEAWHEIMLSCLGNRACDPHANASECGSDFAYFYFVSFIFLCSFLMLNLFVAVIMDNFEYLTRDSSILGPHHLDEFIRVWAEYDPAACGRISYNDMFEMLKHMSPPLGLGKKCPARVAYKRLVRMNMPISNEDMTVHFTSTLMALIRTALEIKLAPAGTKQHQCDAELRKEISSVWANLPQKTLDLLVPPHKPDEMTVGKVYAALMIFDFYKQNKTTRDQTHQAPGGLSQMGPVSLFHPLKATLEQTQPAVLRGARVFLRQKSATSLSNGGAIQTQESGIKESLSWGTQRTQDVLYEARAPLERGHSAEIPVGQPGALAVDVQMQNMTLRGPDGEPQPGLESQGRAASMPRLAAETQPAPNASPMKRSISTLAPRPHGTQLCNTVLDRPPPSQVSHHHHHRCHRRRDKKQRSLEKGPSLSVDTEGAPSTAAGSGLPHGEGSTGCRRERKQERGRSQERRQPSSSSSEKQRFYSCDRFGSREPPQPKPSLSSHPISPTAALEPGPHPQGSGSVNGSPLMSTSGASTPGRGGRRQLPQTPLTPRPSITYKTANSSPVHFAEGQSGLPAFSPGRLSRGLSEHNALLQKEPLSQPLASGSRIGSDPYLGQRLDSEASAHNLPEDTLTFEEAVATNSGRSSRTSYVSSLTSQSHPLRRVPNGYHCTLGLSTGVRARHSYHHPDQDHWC
Sequence of Neurotensin receptor type 1 (P30989 whole entry): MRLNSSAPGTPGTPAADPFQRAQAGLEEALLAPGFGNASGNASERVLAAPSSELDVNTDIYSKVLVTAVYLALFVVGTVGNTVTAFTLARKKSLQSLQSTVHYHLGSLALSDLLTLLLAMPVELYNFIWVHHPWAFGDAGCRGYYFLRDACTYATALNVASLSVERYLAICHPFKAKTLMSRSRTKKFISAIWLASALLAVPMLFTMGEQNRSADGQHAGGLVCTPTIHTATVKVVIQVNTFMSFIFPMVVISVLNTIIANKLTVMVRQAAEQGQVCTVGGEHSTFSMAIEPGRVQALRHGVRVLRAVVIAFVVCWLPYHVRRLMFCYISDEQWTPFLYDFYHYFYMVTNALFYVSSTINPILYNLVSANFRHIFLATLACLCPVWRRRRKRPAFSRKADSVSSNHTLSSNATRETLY

Row | Compound | AC50 [2] [µM] | AC50 [4] [µM] | AC50 [10] [µM] | further results
1 | C[N+](C)(C)CCOC(N)=O [CARBAMOYLCHOLINE] | > 10 |  |  | AC50 [1]: > 10 µM; AC50 [3]: > 30 µM
2 | CN1C(=O)N(C)C2C1N(C)C(=O)N2C (stereo unspecified) [MEBICAR] |  | > 30 |  | AC50 [3]: > 30 µM
3 | CN(C)CCCN1c2ccccc2Sc2ccccc21 [PROMAZINE] | > 10 |  |  | AC50 [5]: > 30 µM; AC50 [6]: > 30 µM; AC50 [7]: > 10 µM; AC50 [8]: > 30 µM; AC50 [9]: > 30 µM; AC50 [1]: 4.37 µM
4 | N[C@@H](CSCC(=O)O)C(=O)O [CARBOCYSTEINE] | > 30 |  | > 30 | 
5 | Nc1ccc(/N=N/c2ccccc2)c(N)n1 [PHENAZOPYRIDINE] |  | > 30 |  | AC50 [3]: > 30 µM
6 | CN(CCCN1c2ccccc2CCc2ccccc21)CC(=O)c1ccc(Cl)cc1 [LOFEPRAMINE] | > 30 |  | > 30 | 
7 | NS(=O)(=O)c1cc(Cl)c(Cl)c(S(N)(=O)=O)c1 [DICHLORPHENAMIDE] | > 10 |  |  | 
8 | CC(=O)N[C@H]1[C@H]([C@H](O)[C@H](O)CO)OC(C(=O)O)=C[C@@H]1N=C(N)N [ZANAMIVIR] | > 30 |  | > 30 | 
9 | C[N+](C)(C)CC(=O)O [BETAINE] | > 30 |  | > 30 | 
10 | CC(=O)N(CC(O)CO)c1c(I)c(C(=O)NCC(O)CO)c(I)c(C(=O)NCC(O)CO)c1I (stereo unspecified) [IOHEXOL] | > 30 |  | > 30 | AC50 [1]: > 10 µM
11 | CN(C/C=C/c1ccccc1)Cc1cccc2ccccc12 [NAFTIFINE] | > 30 |  | > 30 | 
12 | Nc1nc(-n2cc(C(=O)O)c(=O)c3cc(F)c(N4CC(O)C4)c(Cl)c32)c(F)cc1F [DELAFLOXACIN] |  | > 30 |  | 
13 | O=C(O)c1cccc(-c2noc(-c3ccccc3F)n2)c1 |  |  |  | AC50 [1]: > 10 µM
14 | NS(=O)(=O)c1cc(-c2nnn[nH]2)c(NCc2cccs2)cc1Cl [AZOSEMIDE] | > 30 |  | > 30 | 
15 | C=C1C[C@@H]2[C@H](CC[C@]3(C)C(=O)CC[C@@H]23)[C@@]2(C)C=CC(=O)C=C12 [EXEMESTANE] | > 10 |  | > 30 | AC50 [5]: > 30 µM; AC50 [6]: > 30 µM; AC50 [7]: > 10 µM; AC50 [8]: > 30 µM; AC50 [9]: > 30 µM; AC50 [1]: > 10 µM
16 | CCCC(=O)N1CCCN(c2nc(N)c3cc(OC)c(OC)cc3n2)CC1 [BUNAZOSIN] | > 30 |  | > 30 | AC50 [3]: > 30 µM

Row | Compound | AC50 [2] [µM] | AC50 [4] [µM] | AC50 [10] [µM] | further results
17 | O=C(O)CCn1c2c(c3ccccc31)C[C@H](NS(=O)(=O)c1ccc(F)cc1)CC2 [RAMATROBAN] | > 30 |  | > 30 | AC50 [6]: > 10 µM
18 | NS(=O)(=O)c1cc2c(cc1Cl)NC(CC1CCCC1)NS2(=O)=O (stereo unspecified) [CYCLOPENTHIAZIDE] |  | > 30 |  | AC50 [3]: > 30 µM
19 | NC(=O)c1cccc2cn(-c3ccc([C@@H]4CCCNC4)cc3)nc12 [NIRAPARIB] |  | 15.3 |  | 
20 | CO/N=C(\C(=O)N[C@@H]1C(=O)N2C(C(=O)OCOC(=O)C(C)(C)C)=C(C)CS[C@H]12)c1csc(N)n1 |  | > 30 |  | AC50 [3]: > 30 µM
21 | CC(C)NCC1CCc2cc(CO)c([N+](=O)[O-])cc2N1 (stereo unspecified) [OXAMNIQUINE] | > 10 |  | > 10 | 
22 | CC(C)=CCC1C(=O)N(c2ccccc2)N(c2ccccc2)C1=O [FEPRAZONE] |  | > 30 |  | 
23 | O=C(Nc1ccccc1)OCC(CN1CCCCC1)OC(=O)Nc1ccccc1 (stereo unspecified) [DIPERODON] | > 10 |  | > 30 | AC50 [5]: > 30 µM; AC50 [6]: > 30 µM; AC50 [7]: > 10 µM; AC50 [8]: > 30 µM; AC50 [9]: > 30 µM; AC50 [1]: > 10 µM
24 | CC(=O)O[C@]1(C(C)=O)CC[C@H]2[C@@H]3C[C@H](C)C4=CC(=O)CC[C@]4(C)[C@H]3CC[C@@]21C [MEDROXYPROGESTERONE ACETATE] | > 30 |  |  | 
25 | CC(C)(N)Cc1ccc(Cl)cc1 [CHLORPHENTERMINE] | > 10 |  | > 30 | AC50 [5]: > 30 µM; AC50 [6]: > 30 µM; AC50 [7]: > 10 µM; AC50 [8]: > 30 µM; AC50 [9]: > 30 µM; AC50 [1]: > 10 µM
26 | N/N=c1/cc2c(n[nH]1)CCN(C(=O)c1ccccc1)C2 [ENDRALAZINE] |  | > 30 |  | AC50 [3]: > 30 µM
27 | O=P(O)(O)C(O)(Cc1cccnc1)P(=O)(O)O [RISEDRONIC ACID] | > 30 |  | > 30 | AC50 [5]: > 30 µM; AC50 [6]: > 30 µM; AC50 [7]: > 10 µM; AC50 [8]: > 30 µM; AC50 [9]: > 30 µM; AC50 [1]: > 10 µM
28 | CC(C(O)c1ccc(O)cc1)N1CCC(Cc2ccccc2)CC1 (stereo unspecified) [IFENPRODIL] | 23 |  | > 30 | 
29 | COCC1=C(C(=O)OC(C)OC(=O)OC(C)C)N2C(=O)[C@@H](NC(=O)/C(=N\OC)c3csc(N)n3)[C@H]2SC1 (stereo partly specified) [CEFPODOXIME PROXETIL] |  | > 30 |  | AC50 [3]: > 30 µM
30 | O=C1CCC(N2C(=O)c3ccccc3C2=O)C(=O)N1 (stereo unspecified) [THALIDOMIDE] | > 10 |  |  | AC50 [5]: > 30 µM; AC50 [6]: > 30 µM; AC50 [7]: > 10 µM; AC50 [8]: > 30 µM; AC50 [9]: > 30 µM; AC50 [1]: > 10 µM
31 | O=C(Cn1ccnc1[N+](=O)[O-])NCc1ccccc1 [BENZNIDAZOLE] | > 30 | > 30 | > 30 | 
32 | CN(C)[C@@H]1C(O)=C(C(N)=O)C(=O)[C@@]2(O)C(O)=C3C(=O)c4c(O)ccc(Cl)c4[C@@H](O)[C@H]3C[C@@H]12 [DEMECLOCYCLINE] | > 10 |  |  | 
